Measurements published in US9409905B2, “Antibacterial compounds and methods for use” (PTC THERAPEUTICS, INC., priority 2011, dated 2016).

Tests used:
[1] = test system: Escherichia coli (E. coli) BAS849; experiment: Antibacterial activity, microbroth dilution MIC (Table 1); format: cell-based; settings: microbroth dilution, super sensitive Gram-negative E. coli BAS849, read-out: MIC, BAS849
Summary of the method: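 Microbroth dilution was used. MIC, in μg/mL, is the lowest drug concentration preventing macroscopically visible growth under the test conditions.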

[2] = test system: Staphylococcus aureus (S. aureus) 29213; experiment: as above; format: cell-based; settings: microbroth dilution, Gram-positive S. aureus 29213, read-out: MIC, 29213
Summary of the method: (§1)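 Lowest concentration stopping macroscopically visible growth under test conditions, by broth microdilution, defines the MIC (μg/mL).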

A. baumannii MXX2240 = experiment: Antibacterial activity, MIC, resistant strain (Table 4); format: cell-based; settings: Acinetobacter baumannii, MXX2240; resistant A. baumannii MMX2240, multi-drug resistant clinical isolate; read-out: MIC, MMX2240
Summary of the method: (§2)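 Activity was measured by microbroth dilution. The MIC, in μg/mL, is the lowest drug concentration that prevents macroscopically visible growth under the test conditions. The resistant strains are multi-drug resistant clinical isolates.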

K. pneumoniae MXX1232 = experiment: as above; format: cell-based; settings: Klebsiella pneumoniae, MXX1232; resistant K. pneumoniae MMX1232, multi-drug resistant clinical isolate; read-out: MIC, MMX1232
Summary of the method: as §2

[3] = test system: Pseudomonas aeruginosa (P. aeruginosa) 27853; experiment: Antibacterial activity, MIC (Table 5); format: cell-based; settings: P. aeruginosa 27853, read-out: MIC, 27853
Summary of the method: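 Values are MICs in μg/mL, read as the lowest concentration at which no growth is visible by eye. They were determined by a microbroth dilution method.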

E. coli LZ3111 = experiment: Antibacterial activity, MIC, quinolone resistant strain (Table 2); format: cell-based; settings: Escherichia coli, LZ3111, read-out: MIC LZ3111
Summary of the method: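 MIC values (μg/mL) came from a microbroth dilution assay, scored as the lowest drug concentration at which no growth was visible by eye.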

E. coli 25922 = experiment: Antibacterial activity, microbroth dilution MIC (Table 1); format: cell-based, Escherichia coli; settings: Escherichia coli; microbroth dilution; control Gram-negative E. coli 25922 strain; read-out: MIC, 25922
Summary of the method: as §1

[4] = test system: Acinetobacter baumannii (A. baumannii) BAA747; experiment: Antibacterial activity, MIC (Table 4); format: cell-based; settings: A. baumannii BAA747, read-out: MIC, BAA747
Summary of the method: as §2

[5] = test system: Klebsiella pneumoniae (K. pneumoniae) 35657; experiment: Antibacterial activity, MIC (Table 4); format: cell-based; settings: K. pneumoniae 35657, read-out: MIC, 35657
Summary of the method: as §2

Measured: MIC

Cc1c(-c2ccc3cn(C)nc3c2)[nH]c(=O)c(C(=O)O)c1O [Cpd 397, 4-hydroxy-5-methyl-6-(2-methyl-2H-indazol-6-yl)-2-oxo-1,2-dihydropyridine-3-carboxylic acid]
3.5 to 12.5 µg/mL: A. baumannii MXX2240
1 to 3.5 µg/mL: E. coli LZ3111
12.5 to 150 µg/mL: all other assays above

Cc1c(-c2ccc3[nH]ncc3c2)[nH]c(=O)c(C(=O)O)c1O [Cpd 398, 4-hydroxy-6-(1H-indazol-5-yl)-5-methyl-2-oxo-1,2-dihydropyridine-3-carboxylic acid]
3.5 to 12.5 µg/mL: E. coli LZ3111
12.5 to 150 µg/mL: all other assays above

Cc1c(-c2ccc3cn[nH]c3c2)[nH]c(=O)c(C(=O)O)c1O [Cpd 399, 4-hydroxy-6-(1H-indazol-6-yl)-5-methyl-2-oxo-1,2-dihydropyridine-3-carboxylic acid]
12.5 to 150 µg/mL: all assays above

CCc1c(-c2cn3ccccc3n2)[nH]c(=O)c(C(=O)O)c1O [Cpd 400, 5-ethyl-4-hydroxy-6-(imidazo[1,2-a]pyridin-2-yl)-2-oxo-1,2-dihydropyridine-3-carboxylic acid]
1 to 3.5 µg/mL: [1]
12.5 to 150 µg/mL: all other assays above

CCc1c(-c2cc3c(N(C)C)nc(C)cn3n2)[nH]c(=O)c(C(=O)O)c1O [Cpd 401, 6-(4-(dimethylamino)-6-methylpyrazolo[1,5-a]pyrazin-2-yl)-5-ethyl-4-hydroxy-2-oxo-1,2-dihydropyridine-3-carboxylic acid]
3.5 to 12.5 µg/mL: [1] | [2]
12.5 to 150 µg/mL: all other assays above

CCc1c(-c2cc3c(N4CCCC4)nc(C)cn3n2)[nH]c(=O)c(C(=O)O)c1O [Cpd 402, 5-ethyl-4-hydroxy-6-(6-methyl-4-(pyrrolidin-1-yl)pyrazolo[1,5-a]pyrazin-2-yl)-2-oxo-1,2-dihydropyridine-3-carboxylic acid]
3.5 to 12.5 µg/mL: [2]
12.5 to 150 µg/mL: all other assays above

CCc1c(-c2cccc3c2ccn3C)[nH]c(=O)c(C(=O)O)c1O [Cpd 403, 5-ethyl-4-hydroxy-6-(1-methyl-1H-indol-4-yl)-2-oxo-1,2-dihydropyridine-3-carboxylic acid]
3.5 to 12.5 µg/mL: [1]
12.5 to 150 µg/mL: all other assays above

Cc1c(-c2cccc3c2ccn3C)[nH]c(=O)c(C(=O)O)c1O [Cpd 404, 4-hydroxy-5-methyl-6-(1-methyl-1H-indol-4-yl)-2-oxo-1,2-dihydropyridine-3-carboxylic acid]
3.5 to 12.5 µg/mL: [1]
12.5 to 150 µg/mL: all other assays above

CCc1c(-c2cc3ccc(OC)cc3n2C)[nH]c(=O)c(C(=O)O)c1O [Cpd 405, 5-ethyl-4-hydroxy-6-(6-methoxy-1-methyl-1H-indol-2-yl)-2-oxo-1,2-dihydropyridine-3-carboxylic acid]
3.5 to 12.5 µg/mL: [1] | [2]
12.5 to 150 µg/mL: all other assays above

CCc1c(-c2cc3cc(F)ccc3n2C)[nH]c(=O)c(C(=O)O)c1O [Cpd 406, 5-ethyl-6-(5-fluoro-1-methyl-1H-indol-2-yl)-4-hydroxy-2-oxo-1,2-dihydropyridine-3-carboxylic acid]
3.5 to 12.5 µg/mL: [2]
1 to 3.5 µg/mL: [1]
12.5 to 150 µg/mL: all other assays above

CCc1ccc2c(c1)cc(-c1[nH]c(=O)c(C(=O)O)c(O)c1CC)n2C [Cpd 407, 5-ethyl-6-(5-ethyl-1-methyl-1H-indol-2-yl)-4-hydroxy-2-oxo-1,2-dihydropyridine-3-carboxylic acid]
1 to 3.5 µg/mL: [1] | [2]
12.5 to 150 µg/mL: all other assays above

CCc1ccc2cc(-c3[nH]c(=O)c(C(=O)O)c(O)c3CC)n(C)c2c1 [Cpd 408, 5-ethyl-6-(6-ethyl-1-methyl-1H-indol-2-yl)-4-hydroxy-2-oxo-1,2-dihydropyridine-3-carboxylic acid]
1 to 3.5 µg/mL: [1] | [2]
12.5 to 150 µg/mL: all other assays above

CCCc1ccc2c(c1)cc(-c1[nH]c(=O)c(C(=O)O)c(O)c1CC)n2C [Cpd 409, 5-ethyl-4-hydroxy-6-(1-methyl-5-propyl-1H-indol-2-yl)-2-oxo-1,2-dihydropyridine-3-carboxylic acid]
3.5 to 12.5 µg/mL: [2]
1 to 3.5 µg/mL: [1]
12.5 to 150 µg/mL: all other assays above

CCCc1ccc2cc(-c3[nH]c(=O)c(C(=O)O)c(O)c3CC)n(C)c2c1 [Cpd 410, 5-ethyl-4-hydroxy-6-(1-methyl-6-propyl-1H-indol-2-yl)-2-oxo-1,2-dihydropyridine-3-carboxylic acid]
3.5 to 12.5 µg/mL: [2]
1 to 3.5 µg/mL: [1]
12.5 to 150 µg/mL: all other assays above

CCc1c(-c2cc3cc(F)c(C)cc3n2C)[nH]c(=O)c(C(=O)O)c1O [Cpd 411, 5-ethyl-6-(5-fluoro-1,6-dimethyl-1H-indol-2-yl)-4-hydroxy-2-oxo-1,2-dihydropyridine-3-carboxylic acid]
3.5 to 12.5 µg/mL: [2]
1 to 3.5 µg/mL: [1]
12.5 to 150 µg/mL: all other assays above

CCc1c(-c2ccc3c(c2)cc2n3CC(N)C2)[nH]c(=O)c(C(=O)O)c1O.Cl (stereo not drawn) [Cpd 413, 6-(2-amino-2,3-dihydro-1H-pyrrolo[1,2-a]indol-7-yl)-5-ethyl-4-hydroxy-2-oxo-1,2-dihydropyridine-3-carboxylic acid hydrochloride]
< 1 µg/mL: [1] | E. coli 25922 | [5]
3.5 to 12.5 µg/mL: E. coli LZ3111 | [4]
12.5 to 150 µg/mL: all other assays above

CCc1c(-c2ccc3c(c2)cc2n3CC(NC)CC2)[nH]c(=O)c(C(=O)O)c1O.Cl (stereo not drawn) [Cpd 414, 5-ethyl-4-hydroxy-6-(7-(methylamino)-6,7,8,9-tetrahydropyrido[1,2-a]indol-2-yl)-2-oxo-1,2-dihydropyridine-3-carboxylic acid hydrochloride]
< 1 µg/mL: [1] | [5]
1 to 3.5 µg/mL: E. coli 25922
3.5 to 12.5 µg/mL: E. coli LZ3111 | [4]
12.5 to 150 µg/mL: all other assays above

CCc1c(-c2ccc3c(c2)cc2n3CC(NC)C2)[nH]c(=O)c(C(=O)O)c1O.Cl (stereo not drawn) [Cpd 416, 5-ethyl-4-hydroxy-6-(2-(methylamino)-2,3-dihydro-1H-pyrrolo[1,2-a]indol-7-yl)-2-oxo-1,2-dihydropyridine-3-carboxylic acid hydrochloride]
3.5 to 12.5 µg/mL: [1]
12.5 to 150 µg/mL: all other assays above
